Results from ChEMBL document CHEMBL1127898, “The role of oxygen in the photoinduced antiviral activity of hypericin” (1994).

Legend:
Format in all cases: functional
[1] = test system: Equine infectious anemia virus; test: Antiviral activity against equine infectious anemia virus (EIAV) in deoxygenation condition effected by using beta-carotene at a concentration of 80 uM
[2] = test system: Equine infectious anemia virus; test: Antiviral activity against equine infectious anemia virus (EIAV) in deoxygenation condition effected by using beta-carotene at a concentration of 0 uM
[3] = test system: Equine infectious anemia virus; test: Antiviral activity against equine infectious anemia virus (EIAV) in deoxygenation condition effected by using beta-carotene at a concentration of 32 uM
[4] = test system: Equine infectious anemia virus; test: Antiviral activity against equine infectious anemia virus (EIAV) in oxygenated condition after 10 min of illumination, using focal immunoassay
[5] = test system: Equine infectious anemia virus; test: Antiviral activity against equine infectious anemia virus (EIAV) in hypoxic condition obtained by passing nitrogen gas, after 0 min of illumination using focal, immunoassay
[6] = test system: Equine infectious anemia virus; test: Antiviral activity against equine infectious anemia virus (EIAV) in hypoxic condition obtained by passing argon gas, after 10 min of illumination, using focal immunoassay
[7] = test system: Equine infectious anemia virus; test: Antiviral activity against equine infectious anemia virus (EIAV) in hypoxic condition obtained by passing nitrogen gas, after 10 min of illumination using focal, immunoassay
[8] = test system: Equine infectious anemia virus; test: Antiviral activity against equine infectious anemia virus (EIAV) in deoxygenation condition effected by using beta-carotene at a concentration of 64 uM
[9] = test system: Equine infectious anemia virus; test: Antiviral activity against equine infectious anemia virus (EIAV) in hypoxic condition obtained by passing argon gas, after 0 min of illumination, using focal immunoassay

## Cc1cc(O)c2c(=O)c3c(O)cc(O)c4c5c(O)cc(O)c6c(=O)c7c(O)cc(C)c8c1c2c(c34)c(c78)c65 [HYPERICIN]
[1]
  Infectious virus: 0 ffu ml-1
[2]
  Infectious virus: 0 ffu ml-1
[3]
  Infectious virus: 0 ffu ml-1
[4]
  Infectious virus: 0 ffu ml-1
[5]
  Infectious virus: 14500 ffu ml-1
[6]
  Infectious virus: 225 ffu ml-1
[7]
  Infectious virus: 25 ffu ml-1
[8]
  Infectious virus: 0 ffu ml-1
[9]
  Infectious virus: 5975 ffu ml-1
